Patent US7244713B2, “Nucleoside compounds for treating viral infections” (Genelabs Technologies, Inc., priority 2003, dated 2007)

Legend:
[1] = system: HCV replicon in ET (Huh-lucubineo-ET) cell line; experiment: Replicon assay (luciferase, ET cells); format: cell-based, hepatitis C virus
Protocol: A cell line, ET (Huh-lucubineo-ET) is used for screening of compounds of the present invention for HCV RNA dependent RNA polymerase. The ET cell line is stably transfected with RNA transcripts harboring a I389luc-ubi-neo/NS3-3′/ET; replicon with firefly luciferase-ubiquitin-neomycin phosphotransferase fusion protein and EMCV-IRES driven NS3-5B polyprotein containing the cell culture adaptive mutations (E1202G; T1280I; K1846T) (Krieger at al, 2001 and unpublished). The ET cells are grown in DMEM, supplemented with 10% fetal calf serum, 2 mM Glutamine, Penicillin (100 IU/mL)/Streptomycin (100 μg/mL), 1× nonessential amino acids, and 250 μg/mL G418 (“Geneticin”). They are all available through Life Technologies (Bethesda, Md.). The cells are plated at 0.5-1.0×10^4 cells/well in the 96 well plates and incubated for 24 hrs before adding nucleoside analogs. Then the compounds were added to the cells to achieve a final concentration of 50 or 100 μM, or whatever concentration is desired. For these determinations, 6 dilutions of each compound are used. Compounds are typically diluted 3 fold to span a concentration range of 250 fold. Luciferase activity will be measured 48-72 hours later by adding a lysis buffer and the substrate (Catalog number Glo-lysis buffer E2661 and Bright-Glo leuciferase system E2620 Promega, Madison, Wis.). Cells should not be too confluent during the assay. Percent inhibition of replication will be plotted relative to no compound control. Under the same condition, cytotoxicity of the compounds will be determined using cell proliferation reagent, WST-1 (Roche, Germany). IC50 and TC50 values are calculated by fitting % inhibition at each concentration to the following equation, where b is Hill's coefficient: % inhibition=100%/[(IC50/[I])^b+1]

HCV-NS5b = target: T1, HCV-NS5b (Hepatitis C virus genotype 1b, UniProt Q9WMX2); experiment: HCV-NS5b enzyme assay; format: biochemical
T1 construct: The cloned fragment is missing the C terminus 21 amino acid residues; (His)6 (C); made in house; host or cells: XL-1 cells (E. coli, IPTG-inducible plasmid)
Excerpt: The coding sequence of NS5b protein is cloned by PCR from pFKI389luc/NS3-3′/ET as described by Lohmann, V., et al. (1999) Science 285, 110-113 using the following primers: […]
The cloned fragment is missing the C terminus 21 amino acid residues. The cloned fragment is inserted into an IPTG-inducible expression plasmid that provides an epitope tag (His)6 at the carboxy terminus of the protein.
The recombinant enzyme is expressed in XL-1 cells and after induction of expression, the protein is purified using affinity chromatography on a nickel-NTA column. Storage condition is 10 mM Tris-HCl pH 7.5, 50 mM NaCl, 0.1 mM EDTA, 1 mM DTT, 20% glycerol at −20° C.
The polymerase activity is assayed by measuring incorporation of radiolabeled UTP into a RNA product using a biotinylated, heteropolymeric template, which includes a portion of the HCV genome. Typically, the assay mixture (50 μL) contains 10 mM Tris-HCl (pH 7.5), 5 mM MgCl2, 0.2 mM EDTA, 10 mM KCl, 1 unit/μL RNAsin, 1 mM DTT, 10 μM each of NTP, including [^3H]-UTP, and 10 ng/μL heteropolymeric template. Test compounds are initially dissolved in 100% DMSO and further diluted in aqueous buffer containing 5% DMSO. Typically, compounds are tested at concentrations between 1 nM and 100 μM. Reactions are started with addition of enzyme and allowed to continue at 37° C. for 2 hours. Reactions are quenched with 8 μL of 100 mM EDTA and reaction mixtures (30 μL) are transferred to streptavidin-coated scintillation proximity microtiter plates (FlashPlates) and incubated at 4° C. overnight. Incorporation of radioactivity is determined by scintillation counting.

[2] = currently recommended doses; cited from earlier work
HCV = conditions: treatment of HCV, long term efficacy; cited from earlier work

| Molecule | inhibition at 50 µM ([1]; Hepatitis C virus, 50 μM) | inhibition at 100 µM ([1]; Hepatitis C virus, 100 μM) | further results |
| --- | --- | --- | --- |
| C[C@@]1(O)C(O)C(CO)OC1n1cc(C#CC(N)=O)c2c(N)ncnc21 (stereo in doubt) [Cmpd 105, 7-(2′-C-methyl-β-D-ribofuranosyl)-4-amino-5-(2-carboxamidoethyn-1-yl)-pyrrolo[2,3-d]pyrimidine] | 69.6% | 89.1% | – |
| CCOC(C#Cc1cn(C2OC(CO)C(O)[C@@]2(C)O)c2ncnc(N)c12)OCC (stereo in doubt) [Cmpd 106, 7-(2′-C-methyl-β-D-ribofuranosyl)-4-amino-5-[(3,3-diethoxy)proparg-1-yl]-pyrrolo[2,3-d]pyrimidine] | 95.5% | 95.6% | – |
| C[C@@]1(O)C(O)C(CO)OC1n1cc(C=NO)c2c(N)ncnc21 (stereo in doubt) [Cmpd 173, 7-(2′-C-methyl-β-D-ribofuranosyl)-4-amino-5-(carbaldehyde oxime)-pyrrolo[2,3-d]pyrimidine] | 76.7% | 86.9% | – |
| C[C@@]1(O)C(O)C(CO)OC1n1cc(B(O)O)c2c(N)ncnc21 (stereo in doubt) [Cmpd 181, 7-(2′-C-methyl-β-D-ribofuranosyl)-4-amino-5-(boronic acid)-pyrrolo[2,3-d]pyrimidine] | 98.2% | 98.1% | – |
| C[C@@]1(O)[C@H](O)[C@@H](CO)O[C@H]1n1cc(C#C[Si](C)(C)C)c2c(N)ncnc21 [Cmpd 101, 7-(2′-C-methyl-β-D-ribofuranosyl)-4-amino-5-(2′-trimethylsilylethyn-1-yl)-pyrrolo[2,3-d]pyrimidine] | – | – | inhibition at 50 µM ([1]; Hepatitis C virus): 98.1%; inhibition at 100 µM ([1]; Hepatitis C virus): 98.5% |
| C[C@@]1(O)[C@H](O)[C@@H](CO)O[C@H]1n1cc(C#CC(=O)O)c2c(N)ncnc21 [Cmpd 133, 7-(2′-C-methyl-β-D-ribofuranosyl)-4-amino-5-(2-carboxyethyn-1-yl)-pyrrolo[2,3-d]pyrimidine] | 92.3% | 96.7% | – |
| CCOC(=O)C#Cc1cn([C@@H]2O[C@H](CO)[C@@H](O)[C@@]2(C)O)c2ncnc(N)c12 [Cmpd 137, 7-(2′-C-methyl-β-D-ribofuranosyl)-4-amino-5-[(ethyl 2-carboxyl)ethyn-1-yl]-pyrrolo[2,3-d]pyrimidine] | 98.1% | 97.6% | – |
| C[C@@]1(O)[C@H](O)[C@@H](CO)O[C@H]1n1cc(C#Cc2ccccc2)c2c(N)ncnc21 [Cmpd 145, 7-(2′-C-methyl-β-D-ribofuranosyl)-4-amino-5-(2-phenylethyn-1-yl)-pyrrolo[2,3-d]pyrimidine] | 90.7% | 91.8% | – |
| C[C@@]1(O)[C@H](O)[C@@H](COP(=O)(O)OP(=O)(O)OP(=O)(O)O)O[C@H]1n1cc(C#Cc2ccccc2)c2c(N)ncnc21 [Cmpd 154, 7-(2′-C-methyl-5′-triphospho-β-D-ribofuranosyl)-4-amino-5-(2-phenylethyn-1-yl)-pyrrolo[2,3-d]pyrimidine] | – | – | inhibition at 16.7 µM (HCV-NS5b; 16.7 μM, read-out: Enzyme, % inhibition @Con 2): 10.9%; inhibition at 50 µM (HCV-NS5b; 50 μM, read-out: Enzyme, % inhibition @Con 1): 19.2% |
| C=Cc1cn([C@@H]2O[C@H](CO)[C@@H](O)[C@@]2(C)O)c2ncnc(N)c12 [Cmpd 157, 7-(2′-C-methyl-β-D-ribofuranosyl)-4-amino-5-(ethen-1-yl)-pyrrolo[2,3-d]pyrimidine] | 89% | 95% | – |
| CO/C=C\c1cn([C@@H]2O[C@H](CO)[C@@H](O)[C@@]2(C)O)c2ncnc(N)c12 [Cmpd 158, 7-(2′-C-methyl-β-D-ribofuranosyl)-4-amino-5-(2-cis-methoxy-ethen-1-yl)-pyrrolo[2,3-d]pyrimidine] | – | 78.6% | Replicon, % inhibition @100 μM ([1]; 100 μM): 62.4% |
| C[C@@]1(O)[C@H](O)[C@@H](CO)O[C@H]1n1cc(C=O)c2c(N)ncnc21 [Cmpd 165, 7-(2′-C-methyl-β-D-ribofuranosyl)-4-amino-5-(formyl)-pyrrolo[2,3-d]pyrimidine] | – | – | inhibition at 50 µM ([1]; Hepatitis C virus): 96.8%; inhibition at 100 µM ([1]; Hepatitis C virus): 95.9% |
| C[C@@]1(O)[C@H](O)[C@@H](COP(=O)(O)O)O[C@H]1n1cc(C=O)c2c(N)ncnc21 [Cmpd 166, 7-(2′-C-methyl-5′-phospho-β-D-ribofuranosyl)-4-amino-5-(formyl)-pyrrolo[2,3-d]pyrimidine] | 97% | – | inhibition at 16.7 µM ([1]; Hepatitis C virus, 16.7 μM, second test): 96.6% |
| C[C@@]1(O)[C@H](O)[C@@H](COP(=O)(O)OP(=O)(O)OP(=O)(O)O)O[C@H]1n1cc(C=O)c2c(N)ncnc21 [Cmpd 168, 7-(2′-C-methyl-5′-triphospho-β-D-ribofuranosyl)-4-amino-5-(formyl)-pyrrolo[2,3-d]pyrimidine] | – | – | inhibition at 7.7 µM (HCV-NS5b; 7.7 μM, read-out: Enzyme, % inhibition @Con 2): 92%; inhibition at 23.1 µM (HCV-NS5b; 23.1 μM, read-out: Enzyme, % inhibition @Con 1): 96% |
| C[C@@]1(O)C(O)C(CO)OC1n1cc(/C=N/N)c2c(N)ncnc21 (stereo partly drawn) [Cmpd 169, 7-(2′-C-methyl-β-D-ribofuranosyl)-4-amino-5-(hydrazono)-pyrrolo[2,3-d]pyrimidine] | 80.7% | 89.6% | – |
| NC(=O)c1ncn([C@@H]2O[C@H](CO)[C@@H](O)[C@H]2O)n1 [Ribavirin, 1-β-D-ribofuranosyl-1H-1,2,-4-triazole-3-carboxamide] | – | – | patients with significant hemolysis [2]: 10-20% |
| interferon | – | – | response rate (HCV): about 25% |
